For this assay, the target named is Neuropilin-1 (Homo sapiens) (UniProt O14786). Description: blockers of CendR peptide binding to NRP-1 – biochemical, FP and AlphaScreen panel, dose response (AID 651650). Particulars: NRP-1 b1b2 / RPARPAR peptide binding, FP or AlphaScreen. (Alpha assays give light when donor and acceptor beads are brought close together.)
Setting [1] is: AlphaScreen, run 1, individual panel run IC50.
[2] abbreviates: FP, run 1, individual panel run IC50.
Setting [3] is: FP, run 2, individual panel run IC50.

The source made the active and inactive calls.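 The calls were made as follows: active = mean IC50 below 20 µM in each of the two panels, so potent in both; inactive = the rest.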

Sequence of Neuropilin-1 (Homo sapiens) (O14786 whole entry, looked up): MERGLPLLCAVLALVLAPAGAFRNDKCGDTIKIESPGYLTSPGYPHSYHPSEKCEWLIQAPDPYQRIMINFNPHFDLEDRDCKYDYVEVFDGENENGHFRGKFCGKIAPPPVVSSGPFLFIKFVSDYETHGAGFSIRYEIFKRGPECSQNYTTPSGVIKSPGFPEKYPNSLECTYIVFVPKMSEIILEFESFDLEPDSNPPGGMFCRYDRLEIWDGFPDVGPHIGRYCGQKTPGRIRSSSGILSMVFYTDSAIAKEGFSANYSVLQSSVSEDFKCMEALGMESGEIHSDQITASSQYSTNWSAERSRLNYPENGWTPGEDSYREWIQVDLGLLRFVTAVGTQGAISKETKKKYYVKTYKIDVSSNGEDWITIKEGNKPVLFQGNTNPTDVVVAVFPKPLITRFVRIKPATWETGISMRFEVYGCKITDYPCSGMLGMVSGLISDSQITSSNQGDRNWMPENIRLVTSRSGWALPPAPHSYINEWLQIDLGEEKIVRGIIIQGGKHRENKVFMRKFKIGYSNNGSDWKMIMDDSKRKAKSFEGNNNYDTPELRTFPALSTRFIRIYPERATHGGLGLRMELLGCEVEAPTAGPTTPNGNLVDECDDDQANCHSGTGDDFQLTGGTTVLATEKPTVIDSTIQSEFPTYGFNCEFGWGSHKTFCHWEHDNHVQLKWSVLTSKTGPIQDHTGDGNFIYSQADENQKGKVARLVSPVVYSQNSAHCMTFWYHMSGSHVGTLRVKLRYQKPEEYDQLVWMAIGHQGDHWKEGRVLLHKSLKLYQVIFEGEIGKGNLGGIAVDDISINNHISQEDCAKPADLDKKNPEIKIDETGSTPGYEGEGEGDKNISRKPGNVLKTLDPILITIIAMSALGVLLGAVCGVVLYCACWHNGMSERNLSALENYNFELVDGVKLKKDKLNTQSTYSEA

As a reminder, the IC50 is the concentration needed to halve the response being measured. Regarding `Cc1cnccc1CNC(=O)CC1C(=O)NCCN1CC(C)(C)C` (stereo not given), the IC50 was > 100 µM (inactive) (AlphaScreen, mean of runs); > 100 µM under setting [1]; > 95 µM (inactive) (FP, mean of runs); > 95 µM under setting [2]; > 95 µM under setting [3].
For the molecule `NC(=O)C1CCCN(C(=O)c2ccc3nc(Cc4cccc(Cl)c4)oc3c2)C1` (stereo not given), the 50% inhibitory concentration (IC50) was 10.7 µM (AlphaScreen, mean of runs); 10.7 µM under setting [1]; > 95 µM (inactive) (FP, mean of runs); > 95 µM under setting [2]; > 95 µM under setting [3].
On to `Cc1ccnc(N2CCC(C(=O)Nc3ccc4c(c3)OCCO4)CC2)n1`, for which the IC50 is > 100 µM (inactive) (AlphaScreen, mean of runs); > 100 µM under setting [1]; > 95 µM (inactive) (FP, mean of runs); > 95 µM under setting [2]; > 95 µM under setting [3].
`CCCCn1nnnc1C(c1cc2ccccc2o1)N(C)Cc1ccc(Cl)c(Cl)c1` (stereo not given): the IC50 (AlphaScreen, mean of runs) was 12.7 µM; the IC50 under setting [1] was 12.7 µM; the IC50 (FP, mean of runs) is > 95 µM (inactive); the IC50 under setting [2] was > 95 µM; the IC50 under setting [3] was > 95 µM.
With `O=C(NNc1ncnc2c1cnn2-c1ccc(F)cc1)c1ccco1`, the IC50 is > 100 µM (inactive) (AlphaScreen, mean of runs); > 100 µM under setting [1]; > 95 µM (inactive) (FP, mean of runs); > 95 µM under setting [2]; > 95 µM under setting [3].
Regarding `COc1cccc(-c2ccc3c(c2)N(Cc2ccccc2OC)C(=O)C(C)S3)c1` (stereo not given), the IC50 (AlphaScreen, mean of runs) was > 100 µM (inactive); the IC50 under setting [1] was > 100 µM; the IC50 (FP, mean of runs) is > 95 µM (inactive); the 50% inhibitory concentration (IC50) under setting [2] was > 95 µM; the 50% inhibitory concentration (IC50) under setting [3] was > 95 µM.
Take `Cc1ccc(C(=O)N/C(=C\c2ccc(-c3ccccc3[N+](=O)[O-])o2)C(=O)NCCCN2CCOCC2)cc1`: the IC50 by setting is: (AlphaScreen, mean of runs) > 100 µM (inactive); under setting [1], > 100 µM; (FP, mean of runs) > 95 µM (inactive); under setting [2], > 95 µM; under setting [3], > 95 µM.
Take `CC(=O)N1CCSc2ccc(S(=O)(=O)Nc3ccc(C)cc3)cc21`: the IC50 was > 100 µM (inactive) (AlphaScreen, mean of runs); > 100 µM under setting [1]; > 95 µM (inactive) (FP, mean of runs); > 95 µM under setting [2]; > 95 µM under setting [3].
Take `Cc1cc(C)n2c(SCC(=O)Nc3cccc(S(N)(=O)=O)c3)nnc2n1`: the IC50 (AlphaScreen, mean of runs) is > 100 µM (inactive); the IC50 under setting [1] is > 100 µM; the IC50 (FP, mean of runs) was > 95 µM (inactive); the IC50 under setting [2] was > 95 µM; the IC50 under setting [3] was > 95 µM.
As for `CC(Oc1ccccc1)C(=O)NC1=NCCS1` (stereo not given), the IC50 was > 100 µM (inactive) (AlphaScreen, mean of runs); > 100 µM under setting [1]; > 95 µM (inactive) (FP, mean of runs); > 95 µM under setting [2]; > 95 µM under setting [3].
Turning to `COc1ccc(C(C(=O)NC(C)(C)C)N(C(=O)CCC(=O)Nc2cc(C)on2)c2c(C)cccc2C)cc1` (stereo not given), the IC50 by setting is: (AlphaScreen, mean of runs) > 100 µM (inactive); under setting [1], > 100 µM; (FP, mean of runs) > 95 µM (inactive); under setting [2], > 95 µM; under setting [3], > 95 µM.
Consider `COc1cc(C(=O)Nc2cc3c(cc2N2CCCCC2)n(C)c(=O)n3C)cc(OC)c1OC`, for which the IC50 result (AlphaScreen, mean of runs) was “inactive”. The half-inhibitory concentration (IC50) is, setting by setting: under setting [1], 85 µM; (FP, mean of runs) > 95 µM (inactive); under setting [2], > 95 µM; under setting [3], > 95 µM.
Regarding `NC(=O)c1c(NC(=O)C(=O)N2CCOCC2)sc2c1CCCC2`, the IC50 runs as follows: (AlphaScreen, mean of runs) > 100 µM (inactive); under setting [1], > 100 µM; (FP, mean of runs) > 95 µM (inactive); under setting [2], > 95 µM; under setting [3], > 95 µM.
As for `O=C(NCCCN1CCCCCC1)c1ccc(CS(=O)(=O)Cc2ccccc2F)o1`, the IC50 is, setting by setting: (AlphaScreen, mean of runs) > 100 µM (inactive); under setting [1], > 100 µM; (FP, mean of runs) > 95 µM (inactive); under setting [2], > 95 µM; under setting [3], > 95 µM.
As for `COc1cccc(OCC(=O)NNC(=S)Nc2ccc(Cl)cc2Cl)c1`, the IC50 runs as follows: (AlphaScreen, mean of runs) > 100 µM (inactive); under setting [1], > 100 µM; (FP, mean of runs) > 95 µM (inactive); under setting [2], > 95 µM; under setting [3], > 95 µM.
As for `CCC(=NCCc1ccccc1)c1c(O)n(C2CCCCC2)c(=O)[nH]c1=O`, the IC50 is > 100 µM (inactive) (AlphaScreen, mean of runs); > 100 µM under setting [1]; > 95 µM (inactive) (FP, mean of runs); > 95 µM under setting [2]; > 95 µM under setting [3].
With `COc1ccc(-c2[nH]ncc2CN(C)CCc2c(C)n[nH]c2C)c(F)c1`, the IC50 (AlphaScreen, mean of runs) was > 100 µM (inactive); the IC50 under setting [1] was > 100 µM; the IC50 (FP, mean of runs) was > 95 µM (inactive); the IC50 under setting [2] was > 95 µM; the IC50 under setting [3] was > 95 µM.
Turning to `CCCCN(c1ccccc1)S(=O)(=O)c1ccc2c(c1)CCN2C(=O)CCC(=O)O`, the IC50 reads like this: (AlphaScreen, mean of runs) > 100 µM (inactive); under setting [1], > 100 µM; (FP, mean of runs) > 95 µM (inactive); under setting [2], > 95 µM; under setting [3], > 95 µM.
For the molecule `COC(=O)[C@@]1(Cc2ccc(OC)cc2)[C@H]2c3cc(C(=O)N4CCCC4)n(CCN4CCOCC4)c3C[C@H]2CN1C(=O)c1ccccc1`, the IC50 (AlphaScreen, mean of runs) was > 100 µM (inactive); the half-inhibitory concentration (IC50) under setting [1] was > 100 µM; the IC50 (FP, mean of runs) was > 95 µM (inactive); the IC50 under setting [2] was > 95 µM; the half-maximal inhibitory concentration (IC50) under setting [3] is > 95 µM.
For `C=CCn1c(SCC(=O)Nc2ncc(Cc3ccc(Br)cc3)s2)nnc1-c1ccncc1`, the IC50 (AlphaScreen, mean of runs) is > 100 µM (inactive); the concentration for half-maximal inhibition (IC50) under setting [1] is > 100 µM; the IC50 (FP, mean of runs) is > 95 µM (inactive); the IC50 under setting [2] is > 95 µM; the 50% inhibitory concentration (IC50) under setting [3] is > 95 µM.
`Cc1ccc(NC(=O)COc2ncnc3c(Cl)cc(Cl)cc23)cc1[N+](=O)[O-]`: the IC50 was > 100 µM (inactive) (AlphaScreen, mean of runs); > 100 µM under setting [1]; > 95 µM (inactive) (FP, mean of runs); > 95 µM under setting [2]; > 95 µM under setting [3].
On to `O=C(Cn1cccc1C(=O)c1ccccc1)NCCC1=CCCCC1`, for which the 50% inhibitory concentration (IC50) is 7.12 µM (AlphaScreen, mean of runs); 7.12 µM under setting [1]; > 95 µM (inactive) (FP, mean of runs); > 95 µM under setting [2]; > 95 µM under setting [3].
For the molecule `c1cc(CNc2ccc3c(c2)OCO3)ccn1`, the IC50 (AlphaScreen, mean of runs) is > 100 µM (inactive); the IC50 under setting [1] is > 100 µM; the IC50 (FP, mean of runs) was > 95 µM (inactive); the IC50 under setting [2] was > 95 µM; the IC50 under setting [3] was > 95 µM.
`Cc1ccc(NC(=S)Nc2cccc3ccccc23)cc1`: the IC50 (AlphaScreen, mean of runs) was > 100 µM (inactive); the IC50 under setting [1] is > 100 µM; the IC50 (FP, mean of runs) is > 95 µM (inactive); the IC50 under setting [2] is > 95 µM; the IC50 under setting [3] was > 95 µM.
Regarding `CC(=O)C(C(c1ccccc1)N1CCCc2ccccc21)N1CCOCC1` (stereo not given), under “AlphaScreen, mean of runs”, the IC50 entry is “inactive”. Besides, the IC50 runs as follows: under setting [1], 72.2 µM; (FP, mean of runs) > 95 µM (inactive); under setting [2], > 95 µM; under setting [3], > 95 µM.
In the case of `CN(c1ccc(OCC(=O)OCC(=O)Nc2ccc([N+](=O)[O-])cc2)cc1)S(=O)(=O)c1cccs1`, where the note is “AlphaScreen, mean of runs”, the IC50 entry is “inactive”. For the same molecule, the 50% inhibitory concentration (IC50) runs as follows: under setting [1], 44.1 µM; (FP, mean of runs) > 95 µM (inactive); under setting [2], > 95 µM; under setting [3], > 95 µM.
Take `NS(=O)(=O)c1ccc(CNC(=S)NCc2ccc(F)cc2)cc1`: the IC50 runs as follows: (AlphaScreen, mean of runs) > 100 µM (inactive); under setting [1], > 100 µM; (FP, mean of runs) > 95 µM (inactive); under setting [2], > 95 µM; under setting [3], > 95 µM.
In the case of `COc1ccc(CCNC(=O)c2ccc(Cl)c(S(=O)(=O)N(C)c3ccccc3)c2)cc1`, the IC50 is, setting by setting: (AlphaScreen, mean of runs) > 100 µM (inactive); under setting [1], > 100 µM; (FP, mean of runs) > 95 µM (inactive); under setting [2], > 95 µM; under setting [3], > 95 µM.
On to `CCC1Nc2ncnc(N3CCCCC3)c2N(Cc2ccc(C)cc2)C1=O` (stereo not given), for which the IC50 reads like this: (AlphaScreen, mean of runs) > 100 µM (inactive); under setting [1], > 100 µM; (FP, mean of runs) > 95 µM (inactive); under setting [2], > 95 µM; under setting [3], > 95 µM.
As to `O=C1CCCN1CCCNC(=S)Nc1ccc(Cl)cc1Cl`, the IC50 is, setting by setting: (AlphaScreen, mean of runs) > 100 µM (inactive); under setting [1], > 100 µM; (FP, mean of runs) > 95 µM (inactive); under setting [2], > 95 µM; under setting [3], > 95 µM.
With `COc1cc(C(=O)OCCCOC(=O)c2cc(OC)c(OC)c(OC)c2)cc(OC)c1OC`, the IC50 (AlphaScreen, mean of runs) is > 100 µM (inactive); the concentration for half-maximal inhibition (IC50) under setting [1] is > 100 µM; the IC50 (FP, mean of runs) was > 95 µM (inactive); the IC50 under setting [2] was > 95 µM; the IC50 under setting [3] was > 95 µM.
On to `Cn1c(=O)c2c(ncn2CC(COCc2ccccc2)OCc2ccccc2)n(C)c1=O` (stereo not given), for which the IC50 reads like this: (AlphaScreen, mean of runs) > 100 µM (inactive); under setting [1], > 100 µM; (FP, mean of runs) > 95 µM (inactive); under setting [2], > 95 µM; under setting [3], > 95 µM.
As for `Nc1ncnc2[nH]c(=S)[nH]c12`, the IC50 runs as follows: (AlphaScreen, mean of runs) > 100 µM (inactive); under setting [1], > 100 µM; (FP, mean of runs) > 95 µM (inactive); under setting [2], > 95 µM; under setting [3], > 95 µM.
Take `O=C(CCn1c(=O)c2cccn2c2cccnc21)NCc1cccc(Cl)c1`: the IC50 reads like this: (AlphaScreen, mean of runs) > 100 µM (inactive); under setting [1], > 100 µM; (FP, mean of runs) > 95 µM (inactive); under setting [2], > 95 µM; under setting [3], > 95 µM.

The values are drawn from PubChem BioAssay AID651650 (Sanford-Burnham Center for Chemical Genomics, 2012).
